In US8609862B2, “Use of an adrenal hormone-modifying agent” (Novartis AG, priority 2010, dated 2013):

Experiments:
CYP11B1 = target: T1, CYP11B1 (Rattus norvegicus, UniProt P15393); test: In vivo CYP11B1 assay: plasma corticosterone concentration (PCC) in ACTH-infused conscious rats; conditions: ACTH infusion; for % Reduction from baseline PCC t = 1 h: 1 h after dosing; for % Reduction from baseline PCC 8 h: 8 h after dosing
T1 construct: from tissue; host or cells: whole animal: conscious male Sprague-Dawley rats under ACTH infusion (the adrenal gland as site of the enzyme comes from the background, b5)
T1 sequence (P15393 25-499): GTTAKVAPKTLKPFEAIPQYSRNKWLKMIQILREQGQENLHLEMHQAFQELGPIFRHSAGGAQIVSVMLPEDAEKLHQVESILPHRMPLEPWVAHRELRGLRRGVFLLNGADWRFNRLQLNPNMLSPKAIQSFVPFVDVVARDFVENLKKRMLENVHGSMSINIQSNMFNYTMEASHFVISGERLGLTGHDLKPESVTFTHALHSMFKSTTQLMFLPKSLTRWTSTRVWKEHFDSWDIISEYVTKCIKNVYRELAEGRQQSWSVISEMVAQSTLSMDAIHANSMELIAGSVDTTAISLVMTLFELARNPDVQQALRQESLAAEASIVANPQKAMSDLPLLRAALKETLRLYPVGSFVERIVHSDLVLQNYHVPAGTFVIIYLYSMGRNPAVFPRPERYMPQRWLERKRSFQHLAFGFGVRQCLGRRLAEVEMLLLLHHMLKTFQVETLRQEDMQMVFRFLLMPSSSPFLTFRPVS
Procedure: The in vivo effects of compounds on plasma aldosterone concentration (PAC) and plasma glucocorticoid (corticosterone) concentration (PCC) were evaluated in conscious rats.
Male Sprague-Dawley rats (˜400-600 g body weight) were surgically instrumented with a femoral arterial and venous catheter. The catheters were exteriorized from the lower back through a stainless steel spring and swivel system that enabled the rats to move freely at all times. Rats were allowed at least one week to recover from the surgery before initiating the experiments.
On the morning of the experiment, a pretreatment blood sample was collected on heparin from the arterial catheter. The blood samples were spun in a refrigerated centrifuge to generate plasma. The plasma was stored frozen at −70° C. until the later measurement of PAC and PCC (by radioimmunoassay). Adrenocorticotropic hormone (ACTH(1-24), referred to herein as ACTH) was then administered as an intravenous (i.v.) bolus (100 ng/kg) followed by a continuous i.v. infusion (30 ng/kg/min) for 9 hours. After one hour of infusion, a baseline (time 0) blood sample was withdrawn from the arterial catheter and processed and stored as described above. The rats were then dosed (typically 0.01 to 100 mg/kg) with the test compound p.o. by oral gavage or parenterally via the arterial catheter (i.a.). Compounds were formulated in an appropriate vehicle (e.g., water (p.o.) or saline (i.a.)) at a physiologically compatible volume (typically 1-2 ml/kg). Additional blood samples were withdrawn at 0.083 (i.a. only), 0.25, 0.5, 1, 2, 3, 4, 5, 6, 7, 8, and 24 hours after dosing with compound and processed and stored as above for later determination of PAC, PCC, and plasma compound concentration (by LC/MS/MS). Oral bioavailability and traditional pharmacokinetic (PK) parameters were estimated from the plasma compound concentrations.
Based on the plasma compound concentration at each dose, the PK/PD (pharmacodynamic) profiles (reduction of PAC and PCC) of each compound were determined.

Rat CYP11B1 = target: T2, Rat CYP11B1 (Rattus norvegicus, UniProt P15393); test: In vitro rat CYP11B1 assay; type: biochemical; conditions: V79-4 cell homogenate, 11-deoxycorticosterone to corticosterone, SPA
T2 construct: made in house; host or cells: V79-4 cell line #259 (stably selected with geneticin and hygromycin); sonicated homogenate, 500 x g supernatant
T2 sequence (P15393 25-499): T1 sequence (P15393 25-499)
Description: Complete EDTA-free protease inhibitor tablets were obtained from Roche Applied Science (Indianapolis, Ind.). Dulbecco's modified Eagle medium (DMEM), antibiotic, geneticin, hygromycin, and fetal bovine serum (FBS) were products of Invitrogen (Carlsbad, Calif.). NADPH Regeneration Solution A and Solution B were purchased from BD Biosciences Clontech (Palo Alto, Calif.). Anti-sheep PVT SPA beads and [1,2,6,7-^3H(N)]corticosterone were acquired from Amersham (Piscataway, N.J.) and PerkinElmer (Boston, Mass.), respectively.
For enzyme preparation, #259 cells were seeded in 150 mm dishes in double-selection medium. Following 2 days of growth, cells were washed once with PBS, scraped and collected in PBS, and centrifuged at 1,300 rpm for 6 min. […] The sonication procedure was repeated 3 more times, with a 5 min rest on ice between sonications. The sonicated material was then spun at 500×g for 4 min to remove unbroken cells. The supernatant was brought to a final glycerol concentration of 5%, flash-frozen in liquid nitrogen, and stored at −80° C.
The CYP11B1 assays were performed in 96-well U-bottom non-tissue-culture-treated plates. […] Plates were then centrifuged at 2,400 rpm for 6 min, and 50 μl of supernatant was removed for measurement of corticosterone content by scintillation proximity assay (SPA).
Measurement of corticosterone was performed using a 96-well plate format. […] Anti-sheep PVT SPA beads (50 μl) were then added to each well and incubated overnight at room temperature prior to counting in a Microbeta plate counter. The amount of corticosterone in each sample was calculated by comparing with a standard curve generated using known quantities of the hormone.
Full concentration-response curves of an inhibitor were performed at least 3 times. The IC50 values were derived using a non-linear least squares curve-fitting program from IDBS XLfit.

COc1ccc(CN(C)C(=O)C2(c3ccc(C#N)cc3Cl)CCc3cncn32)cc1 (stereo not drawn) [5-(2-chloro-4-cyanophenyl)-N-(4-methoxybenzyl)-N-methyl-6,7-dihydro-5H-pyrrolo[1,2-c]imidazole-5-carboxamide]
% Reduction from baseline PCC t = 1 h (CYP11B1; 30 mg/kg i.a.): 76%
% Reduction from baseline PCC 8 h (CYP11B1; 30 mg/kg i.a.): 78%
IC50 (Rat CYP11B1): 2 nM

N#Cc1ccc(C2CCCCc3cncn32)c(-c2ccc(F)cc2)c1 (single isomer, unassigned) [4′-fluoro-6-(6,7,8,9-tetrahydro-5H-imidazo[1,5-a]azepin-5-yl)biphenyl-3-carbonitrile]
% Reduction from baseline PCC t = 1 h (CYP11B1; 3 mg/kg i.a.): 89%
% Reduction from baseline PCC 8 h (CYP11B1; 3 mg/kg i.a.): 43%
IC50 (Rat CYP11B1): 0.3 nM

N#Cc1ccc(C2CCCCc3cncn32)c(Br)c1 (racemic) [3-bromo-4-(6,7,8,9-tetrahydro-5H-imidazo[1,5-a]azepin-5-yl)benzonitrile racemate, 3-bromo-4-(6,7,8,9-tetrahydro-5H-imidazo[1,5-a]azepin-5-yl)benzonitrile]
% Reduction from baseline PCC t = 1 h (CYP11B1; 10 mg/kg p.o.): 70%
% Reduction from baseline PCC 8 h (CYP11B1; 10 mg/kg p.o.): 87%
IC50 (Rat CYP11B1): 1 nM
